Assay results published in patent publication US20260297081A1, “COMPOUNDS AND METHODS OF TREATING CANCERS” (Cullgen Inc., priority 2023, published 2026).

Legend:
Format in all cases: cell-based
Calu-1 cells = experiment: Anti-proliferation (viability) of NSCLC Calu-1 cells, 3 days (Table 7, FIG. 2B); conditions: Homo sapiens, 72 h; Calu-1 cells, 3 days, 10-point serial dilution; read-out: GI IC50 in Calu-1
Procedure, shortened: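 Viability after a 10-point dilution series of heterobifunctional compounds, with exposure of 6 days for ER+ breast T47D cells and 3 days for NSCLC Calu-1 cells.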

MCF7 cells = experiment: Anti-proliferation (viability) of MCF7 cells (Table 7, FIG. 2B); conditions: Homo sapiens, MCF7, MCF7 cells, 3-6 days, 10-point serial dilution; read-out: GI IC50 in MCF-7
CDK4 = CDK4 (Homo sapiens, UniProt P11802+Q16531); experiment: HiBiT detection of HiBiT-tagged CDK4 protein level in MCF7 cells, 16 hours (Table 8); parameters: expressed in transfected cells; host or cells: MCF7; conditions: MCF7 cells stably expressing HiBiT tagged target proteins; for activity at 0.01 µM: 10 nM, read-out: % CDK4 Relative Level (10 nM); for activity at 0.1 µM: 100 nM, read-out: % CDK4 Relative Level (100 nM)
Description: HiBiT detection system quantitatively measures total amounts of HiBiT-tagged proteins using a luminescent based method. MCF7 cells stably expressing HiBiT tagged target proteins were treated with heterobifunctional compounds at indicated concentrations for 16 hours, then lysed with Nano-Glo HiBiT Lytic detection reagents.

Sequence of CDK4 (P11802 whole entry): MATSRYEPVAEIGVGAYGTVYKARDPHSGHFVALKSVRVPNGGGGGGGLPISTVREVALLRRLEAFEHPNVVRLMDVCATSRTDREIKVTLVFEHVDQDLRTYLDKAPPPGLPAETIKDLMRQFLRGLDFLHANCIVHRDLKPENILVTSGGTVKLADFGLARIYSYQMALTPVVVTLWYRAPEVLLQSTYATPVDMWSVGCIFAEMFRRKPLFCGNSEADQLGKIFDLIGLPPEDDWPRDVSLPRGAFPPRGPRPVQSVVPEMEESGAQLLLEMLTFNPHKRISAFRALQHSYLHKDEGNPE
Sequence of CDK4 (P24385 whole entry partner): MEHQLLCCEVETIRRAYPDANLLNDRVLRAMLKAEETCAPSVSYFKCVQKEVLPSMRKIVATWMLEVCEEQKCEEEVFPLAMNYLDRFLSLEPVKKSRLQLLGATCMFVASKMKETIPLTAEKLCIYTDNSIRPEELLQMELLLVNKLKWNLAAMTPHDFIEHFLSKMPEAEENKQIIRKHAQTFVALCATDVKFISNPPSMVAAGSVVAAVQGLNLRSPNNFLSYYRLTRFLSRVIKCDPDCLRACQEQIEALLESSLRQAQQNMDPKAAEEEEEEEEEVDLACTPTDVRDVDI
Sequence of CDK4 (Q16531 2-1140 limits assumed): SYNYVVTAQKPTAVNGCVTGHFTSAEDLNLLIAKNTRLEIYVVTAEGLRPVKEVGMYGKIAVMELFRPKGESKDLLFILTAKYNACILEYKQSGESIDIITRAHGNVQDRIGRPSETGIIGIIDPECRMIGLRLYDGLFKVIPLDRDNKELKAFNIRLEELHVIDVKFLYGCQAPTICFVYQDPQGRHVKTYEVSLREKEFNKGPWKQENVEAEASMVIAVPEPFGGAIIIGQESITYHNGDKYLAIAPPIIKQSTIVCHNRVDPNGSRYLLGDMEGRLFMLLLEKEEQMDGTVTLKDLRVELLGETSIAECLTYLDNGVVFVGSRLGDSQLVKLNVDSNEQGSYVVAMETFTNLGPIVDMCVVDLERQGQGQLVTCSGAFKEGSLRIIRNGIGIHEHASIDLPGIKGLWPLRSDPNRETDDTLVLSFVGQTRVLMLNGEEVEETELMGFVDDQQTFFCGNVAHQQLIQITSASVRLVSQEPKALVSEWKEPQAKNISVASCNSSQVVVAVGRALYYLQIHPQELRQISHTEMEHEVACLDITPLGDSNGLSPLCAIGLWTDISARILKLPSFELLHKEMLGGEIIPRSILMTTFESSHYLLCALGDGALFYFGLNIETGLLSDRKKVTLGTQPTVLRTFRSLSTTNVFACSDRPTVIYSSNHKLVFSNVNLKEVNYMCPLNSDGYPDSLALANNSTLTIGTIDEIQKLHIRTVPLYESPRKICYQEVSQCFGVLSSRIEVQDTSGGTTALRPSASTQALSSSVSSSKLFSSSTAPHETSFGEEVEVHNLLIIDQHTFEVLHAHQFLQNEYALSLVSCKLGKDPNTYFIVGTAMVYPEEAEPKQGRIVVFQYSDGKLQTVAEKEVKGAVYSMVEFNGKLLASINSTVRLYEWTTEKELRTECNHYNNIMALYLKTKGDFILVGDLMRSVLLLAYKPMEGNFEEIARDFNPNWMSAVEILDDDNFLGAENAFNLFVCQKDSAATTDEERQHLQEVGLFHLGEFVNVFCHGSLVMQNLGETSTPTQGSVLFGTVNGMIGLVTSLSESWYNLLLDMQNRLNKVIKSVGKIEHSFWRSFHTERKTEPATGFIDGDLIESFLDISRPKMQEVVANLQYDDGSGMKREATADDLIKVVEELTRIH

[2H]C([2H])([2H])Nc1ccc(C(=O)Nc2cccc(OC)n2)c(NC2CC3(C2)CN(C(=O)CC(N2CCN(c4ccc(Nc5ncc6c(C)c(C(C)=O)c(=O)n(C7CCCC7)c6n5)nc4)CC2)C(F)(F)F)C3)n1 (centres unmarked) [CPD-531, 2-((2-(3-(4-(6-((6-acetyl-8-cyclopentyl-5-methyl-7-oxo-7,8-dihydropyrido[2,3-d]pyrimidin-2-yl)amino)pyridin-3-yl)piperazin-1-yl)-4,4,4-trifluorobutanoyl)-2-azaspiro[3.3]heptan-6-yl)amino)-N-(6-methoxypyridin-2-yl)-6-((methyl-d3)amino)nicotinamide]
IC50 (Calu-1 cells): ≤ 10 nM | IC50 (MCF7 cells): < 50 nM | activity at 0.01 µM (CDK4): 55 to 85% | activity at 0.1 µM (CDK4): 55 to 85%

CC(=O)c1c(C)c2cnc(Nc3ccc(N4CCN(C5CCN(C(=O)[C@H]6CC[C@H](Nc7nc(NC(C)C)ccc7C(=O)Nc7cc8n(n7)CCC8)CC6)C5)CC4)cn3)nc2n(C2CCCC2)c1=O (stereo partly drawn) [CPD-520, 2-((trans-4-(3-(4-(6-((6-acetyl-8-cyclopentyl-5-methyl-7-oxo-7,8-dihydropyrido[2,3-d]pyrimidin-2-yl)amino)pyridin-3-yl)piperazin-1-yl)pyrrolidine-1-carbonyl)cyclohexyl)amino)-N-(5,6-dihydro-4H-pyrrolo[1,2-b]pyrazol-2-yl)-6-(isopropylamino)nicotinamide]
IC50 (Calu-1 cells): ≤ 10 nM | IC50 (MCF7 cells): < 50 nM | activity at 0.01 µM (CDK4): > 85% | activity at 0.1 µM (CDK4): > 85%

[2H]C([2H])([2H])Nc1ccc(C(=O)Nc2ccc(N(C)C)nn2)c(NC2CCN(CC(=O)N3CCN(Cc4ccc(Nc5ncc6c(C)c(C(C)=O)c(=O)n(C7CCCC7)c6n5)nc4)CC3)CC2)n1 [CPD-491]
IC50 (Calu-1 cells): ≤ 10 nM | IC50 (MCF7 cells): < 50 nM | activity at 0.01 µM (CDK4): > 85% | activity at 0.1 µM (CDK4): > 85%

CC(=O)c1c(C)c2cnc(Nc3ccc(N4CCN(C5CCN(C(=O)[C@H]6CC[C@H](Nc7nc(NC(C)C)ccc7C(=O)Nc7cn(C)c(C8CC8)n7)CC6)C5)CC4)cn3)nc2n(C2CCCC2)c1=O (some centres unmarked) [CPD-481, 2-((4-(3-(4-(6-((6-acetyl-8-cyclopentyl-5-methyl-7-oxo-7,8-dihydropyrido[2,3-d]pyrimidin-2-yl)amino)pyridin-3-yl)piperazin-1-yl)pyrrolidine-1-carbonyl)cyclohexyl)amino)-N-(2-cyclopropyl-1-methyl-1H-imidazol-4-yl)-6-(isopropylamino)nicotinamide]
IC50 (Calu-1 cells): ≤ 10 nM | IC50 (MCF7 cells): < 50 nM | activity at 0.01 µM (CDK4): > 85% | activity at 0.1 µM (CDK4): > 85%

CC(=O)c1c(C)c2cnc(Nc3ccc(CN4CCN(CC(=O)NC5CCC(Nc6nc(NC(C)C)ccc6C(=O)Nc6ccc(N(C)C)nn6)C5)CC4)cn3)nc2n(C2CCCC2)c1=O (centres unmarked) [CPD-501, 2-((3-(2-(4-((6-((6-acetyl-8-cyclopentyl-5-methyl-7-oxo-7,8-dihydropyrido[2,3-d]pyrimidin-2-yl)amino)pyridin-3-yl)methyl)piperazin-1-yl)acetamido)cyclopentyl)amino)-N-(6-(dimethylamino)pyridazin-3-yl)-6-(isopropylamino)nicotinamide]
IC50 (Calu-1 cells): ≤ 10 nM | IC50 (MCF7 cells): < 50 nM | activity at 0.01 µM (CDK4): > 85% | activity at 0.1 µM (CDK4): > 85%

CC(=O)c1c(C)c2cnc(Nc3ccc(N4CCC(N(C)CC(=O)NC56CC(Nc7nc(NC(C)C)ccc7C(=O)Nc7ccc(N(C)C)nn7)(C5)C6)CC4)cn3)nc2n(C2CCCC2)c1=O [CPD-505, 2-((3-(2-((1-(6-((6-acetyl-8-cyclopentyl-5-methyl-7-oxo-7,8-dihydropyrido[2,3-d]pyrimidin-2-yl)amino)pyridin-3-yl)piperidin-4-yl)(methyl)amino)acetamido)bicyclo[1.1.1]pentan-1-yl)amino)-N-(6-(dimethylamino)pyridazin-3-yl)-6-(isopropylamino)nicotinamide]
IC50 (Calu-1 cells): ≤ 10 nM | IC50 (MCF7 cells): < 50 nM | activity at 0.01 µM (CDK4): > 85% | activity at 0.1 µM (CDK4): > 85%

CC(=O)c1c(C)c2cnc(Nc3ccc(C(C)N4CCN(CC(=O)N5CCC6(CCC(Nc7nc(NC(C)C)ccc7C(=O)Nc7ccc(N(C)C)nn7)C6)C5)CC4)cn3)nc2n(C2CCCC2)c1=O (centres unmarked) [CPD-551, 2-((2-(2-(4-(1-(6-((6-acetyl-8-cyclopentyl-5-methyl-7-oxo-7,8-dihydropyrido[2,3-d]pyrimidin-2-yl)amino)pyridin-3-yl)ethyl)piperazin-1-yl)acetyl)-2-azaspiro[4.4]nonan-7-yl)amino)-N-(6-(dimethylamino)pyridazin-3-yl)-6-(isopropylamino)nicotinamide]
IC50 (Calu-1 cells): ≤ 10 nM | IC50 (MCF7 cells): < 50 nM | activity at 0.01 µM (CDK4): > 85% | activity at 0.1 µM (CDK4): 55 to 85%

CC(=O)c1c(C)c2cnc(Nc3ccc(N4CCN(CC(=O)N(C)CC56CC(Nc7nc(NC(C)C)ccc7C(=O)Nc7ccc(N(C)C)nn7)(C5)C6)CC4)cn3)nc2n(C2CCCC2)c1=O [CPD-525, 2-((3-((2-(4-(6-((6-acetyl-8-cyclopentyl-5-methyl-7-oxo-7,8-dihydropyrido[2,3-d]pyrimidin-2-yl)amino)pyridin-3-yl)piperazin-1-yl)-N-methylacetamido)methyl)bicyclo[1.1.1]pentan-1-yl)amino)-N-(6-(dimethylamino)pyridazin-3-yl)-6-(isopropylamino)nicotinamide]
IC50 (Calu-1 cells): ≤ 10 nM | IC50 (MCF7 cells): < 50 nM | activity at 0.01 µM (CDK4): > 85% | activity at 0.1 µM (CDK4): > 85%

CC(=O)c1c(C)c2cnc(Nc3ccc(N4CCN(C5CCN(C(=O)[C@H]6CC[C@H](Nc7nc(C(C)C)ccc7C(=O)Nc7ccc(N(C)C)nn7)CC6)C5)CC4)cn3)nc2n(C2CCCC2)c1=O (stereo partly drawn) [CPD-499, 2-((trans-4-(3-(4-(6-((6-acetyl-8-cyclopentyl-5-methyl-7-oxo-7,8-dihydropyrido[2,3-d]pyrimidin-2-yl)amino)pyridin-3-yl)piperazin-1-yl)pyrrolidine-1-carbonyl)cyclohexyl)amino)-N-(6-(dimethylamino)pyridazin-3-yl)-6-isopropylnicotinamide]
IC50 (Calu-1 cells): ≤ 10 nM | IC50 (MCF7 cells): < 50 nM | activity at 0.01 µM (CDK4): > 85% | activity at 0.1 µM (CDK4): 55 to 85%

CC(=O)c1c(C)c2cnc(Nc3ccc(N4CCN(C5CCN(C(=O)CC67CC(Nc8nc(NC(C)C)ccc8C(=O)Nc8ccc(N(C)C)nn8)(C6)C7)C5)CC4)cn3)nc2n(C2CCCC2)c1=O (centres unmarked) [CPD-537, 2-((3-(2-(3-(4-(6-((6-acetyl-8-cyclopentyl-5-methyl-7-oxo-7,8-dihydropyrido[2,3-d]pyrimidin-2-yl)amino)pyridin-3-yl)piperazin-1-yl)pyrrolidin-1-yl)-2-oxoethyl)bicyclo[1.1.1]pentan-1-yl)amino)-N-(6-(dimethylamino)pyridazin-3-yl)-6-(isopropylamino)nicotinamide]
IC50 (Calu-1 cells): ≤ 10 nM | IC50 (MCF7 cells): < 50 nM | activity at 0.01 µM (CDK4): > 85% | activity at 0.1 µM (CDK4): > 85%

CC(=O)c1c(C)c2cnc(Nc3ccc(N4CCN(CCC(=O)NC56CC(Nc7nc(NC(C)C)ccc7C(=O)Nc7ccc(N(C)C)nn7)(C5)C6)CC4)cn3)nc2n(C2CCCC2)c1=O [CPD-503, 2-((3-(3-(4-(6-((6-acetyl-8-cyclopentyl-5-methyl-7-oxo-7,8-dihydropyrido[2,3-d]pyrimidin-2-yl)amino)pyridin-3-yl)piperazin-1-yl)propanamido)bicyclo[1.1.1]pentan-1-yl)amino)-N-(6-(dimethylamino)pyridazin-3-yl)-6-(isopropylamino)nicotinamide]
IC50 (Calu-1 cells): ≤ 10 nM | IC50 (MCF7 cells): < 50 nM | activity at 0.01 µM (CDK4): 55 to 85% | activity at 0.1 µM (CDK4): 55 to 85%

CC(=O)c1c(C)c2cnc(Nc3ccc(CN4CCN(CC(=O)NC5CC6(C5)CC(Nc5nc(NC(C)C)ccc5C(=O)Nc5ccc(N(C)C)nn5)C6)CC4)cn3)nc2n(C2CCCC2)c1=O (centres unmarked) [CPD-472, 2-((6-(2-(4-((6-((6-acetyl-8-cyclopentyl-5-methyl-7-oxo-7,8-dihydropyrido[2,3-d]pyrimidin-2-yl)amino)pyridin-3-yl)methyl)piperazin-1-yl)acetamido)spiro[3.3]heptan-2-yl)amino)-N-(6-(dimethylamino)pyridazin-3-yl)-6-(isopropylamino)nicotinamide]
IC50 (Calu-1 cells): ≤ 10 nM | IC50 (MCF7 cells): < 50 nM | activity at 0.01 µM (CDK4): 55 to 85% | activity at 0.1 µM (CDK4): ≤ 55%

COc1cccc(NC(=O)c2ccc(NC(C)C)nc2NC2CC3(C2)CN(C(=O)CN2CCC4(CCN(c5ccc(Nc6ncc7c(C)c(C(C)=O)c(=O)n(C8CCCC8)c7n6)nc5)C4)C2)C3)n1 (centres unmarked) [CPD-532, 2-((2-(2-(7-(6-((6-acetyl-8-cyclopentyl-5-methyl-7-oxo-7,8-dihydropyrido[2,3-d]pyrimidin-2-yl)amino)pyridin-3-yl)-2,7-diazaspiro[4.4]nonan-2-yl)acetyl)-2-azaspiro[3.3]heptan-6-yl)amino)-6-(isopropylamino)-N-(6-methoxypyridin-2-yl)nicotinamide]
IC50 (Calu-1 cells): ≤ 10 nM | IC50 (MCF7 cells): < 50 nM | activity at 0.01 µM (CDK4): 55 to 85% | activity at 0.1 µM (CDK4): 55 to 85%

CNc1ccc(C(=O)Nc2ccc(N(C)C)nn2)c(NCCC(=O)N2CCN(c3ccc(Nc4ncc5cc(C(=O)N(C)C)n(C6CCCC6)c5n4)nc3)CC2)n1 [CPD-616, 7-cyclopentyl-2-((5-(4-(3-((3-((6-(dimethylamino)pyridazin-3-yl)carbamoyl)-6-(methylamino)pyridin-2-yl)amino)propanoyl)piperazin-1-yl)pyridin-2-yl)amino)-N,N-dimethyl-7H-pyrrolo[2,3-d]pyrimidine-6-carboxamide]
IC50 (Calu-1 cells): ≥ 50 nM | IC50 (MCF7 cells): > 100 nM | activity at 0.01 µM (CDK4): > 85% | activity at 0.1 µM (CDK4): > 85%
